# Results: PubChem BioAssay AID1996
# Details: buffer; pH 7.4; 200.0 µM
row,Structure (SMILES),solubility kinetic [µg/mL]
1,O=C(Nc1ccncc1)c1cc(S(=O)(=O)N2CCCC2)ccc1Cl,> 54.9
2,COc1ccc2oc(C(=O)OCC(=O)NC(=O)c3ccccc3)c(C)c2c1,4.5
3,COc1cccc(-c2noc(CCC(=O)NC3CCCC3)n2)c1,> 47.3
4,CCN(CC)c1ccc(C(=O)OCC(=O)Nc2ncccn2)cc1,2.4
5,CC1CN(C/C(=N\O)C23CC4CC(CC(C4)C2)C3)CC(C)O1 (stereo not given),> 46
6,Cc1ccc(CSC2=NCCN2C(=O)C(C)Oc2ccccc2)cc1 (stereo not given),4.4
7,CCn1cc(C(=S)N2CCC(C(N)=O)CC2)c2ccccc21,38.7
8,COc1ccccc1CNC(=O)COC(=O)c1ccc(C(=O)c2ccccc2)cc1,8.2
9,CC(C)(C)c1ccc(C(=O)NC2CCN(Cc3ccccc3)CC2)cc1,36.5
10,COC(CNC(=O)c1ccc2c(c1)ncn2C1CCCCCC1)OC,> 51.8
11,CC(C)c1ccc(NC(=O)c2ccccc2NC(=O)C2CCCCC2C(=O)O)cc1 (stereo not given),55.3
12,CC(NC(=O)CS(=O)(=O)c1ccccc1)c1ccccc1 (stereo not given),> 45.5
13,COc1ccc(NC(=O)c2ccccc2C)cc1,27.1
14,Cc1cc(C)c(C#N)c(SCC(=O)Nc2cc(C)on2)n1,2.1
15,CC(Sc1ccc(S(=O)(=O)N2CCOCC2)cn1)c1ccccc1Cl (stereo not given),5.9
16,Cc1cc(C)c(C)c(OCCn2ccnc2)c1,31.4
17,COc1ccccc1NC(=O)NC1CCS(=O)(=O)C1 (stereo not given),> 42.6
18,Cc1cccc(N2C(=O)c3ccccc3C2=O)n1,> 35.7
19,COc1ccc(C(=O)CN2CCN(c3cc(C)nc4ccccc34)CC2)cc1,45.9
20,O=C(Nc1cccc2cccnc12)c1ccc(Br)cc1Br,< 0.4
21,CCOc1ccc(NC(=O)N(CCN(C)C)C(C)c2cccnc2)cc1 (stereo not given),> 53.5
22,OC1CSc2nc3ccccc3n2C1 (stereo not given),26.6

row,Structure (SMILES),solubility kinetic [µg/mL]
1,O=C1CC(c2ccccc2)CC(=O)C1=CN1CCCC1 (stereo not given),> 40.4
2,Cc1ccc(S(=O)(=O)NC(=O)C2CCCCC2)cc1,> 42.2
3,COc1ccc(NC(=O)NCc2cccnc2)cc1,> 38.6
4,COc1cccc2[nH]c(=O)c(-c3ccccc3)cc12,1.4
5,COc1cccc(NC(=O)CCN2CCOCC2)c1.Cl,> 45.1
6,O=C(OCC(=O)c1ccc[nH]1)c1cncc(Br)c1,24.2
7,Cc1ccc2oc(C(=O)NC3CCS(=O)(=O)C3)c(C)c2c1 (stereo not given),27.5
8,O=C(COc1ccccc1Br)Nc1ccc2c(c1)OCCCO2,1.6
9,Cc1ccc(S(=O)(=O)N2CCOCC2)cc1NC(=O)CN1C(=O)NC2(CCCC2)C1=O,> 67.6
10,Cc1ccc2c(c1)C(=C(C#N)C#N)C(=O)N2CCN1CCOCC1,48.3
11,Cc1cc(Cl)ccc1OCC(=O)Nc1cccnc1,35.3
12,OCCCc1cn(Cc2ccccc2)c2ccccc12,22.9
13,CC1CCN(c2ccc([N+](=O)[O-])c(SCCO)c2)CC1,28.4
14,O=C(N/N=C/c1c[nH]c2ccccc12)c1ccccc1O,> 41.9
15,COc1ccc(OC)c(NC(=O)c2nc3ccccc3s2)c1,< 0.3
16,Cc1cnc(NC(=O)c2ccncc2)s1,30.2
17,COc1ccc(C(=O)Nc2cccc3nc(C)ccc23)cc1OC,16.6
18,CCOC(=O)c1c(/N=C/C2C(=O)NC(=O)NC2=O)sc2c1CCC2,5.4
19,COc1ccc2[nH]c(C(=O)NCc3ccccc3)cc2c1,1.3
20,CC1(C)OC(=O)C(=CNC(CO)C(=O)O)C(=O)O1 (stereo not given),> 38.9
21,O=C(NC12CC3CC(CC(C3)C1)C2)c1cccc([N+](=O)[O-])c1,7.3
22,O=C(NC1CC1)C1CCN(S(=O)(=O)c2ccc(Cl)cc2)CC1,41.7

row,Structure (SMILES),solubility kinetic [µg/mL]
1,CCOC(=O)/C(C#N)=C/C=C1\C=Cc2ccccc2N1CC,0.7
2,O=S(=O)(O)c1cnccc1Nc1cccc(C(F)(F)F)c1,> 47.7
3,CC(=O)c1ccc(Sc2ccccc2)c([N+](=O)[O-])c1,3.1
4,Cc1c(-c2nc(-c3ccc(C(C)(C)C)cc3)no2)n(C)oc1=O,< 0.2
5,O=C(NC1CC1)c1sc2ccccc2c1Cl,1.6
6,CCCCn1cnc2c(oc3nc4c(cc32)CCCC4)c1=O,20.6
7,O=C(Cc1ccccc1F)N1CCN(CC(=O)N2CCCC2)CC1,> 50
8,COc1ccc(/C=C/c2noc(-c3ccccc3OC(C)=O)n2)cc1,0.6
9,O=C(Nc1ccccc1NS(=O)(=O)c1ccc(F)cc1)C1CCC1,21.1
10,O=C1CCCC(=O)N1c1ccc(F)cc1,> 31.1
11,Cc1ccc(C#N)c(SCc2ccccc2F)n1,< 0.3
12,Cc1csc(NC(=O)CSc2[nH]c(=O)ncc2C)n1,> 44.5
13,COc1ccc(NC(=O)c2cccnc2)cc1OCC(C)C,27.2
14,COc1ccc(OC)c(/C=C/C(=O)OCC(=O)N2CCCC2)c1,> 47.9
15,O=C(Nc1ccc(NC(=O)C2CC2)nc1)c1ccccc1F,8.1
16,Cc1ccc(O)c(NC(=S)NC(=O)Cc2ccc(Cl)cc2)c1,1.3
17,CC1CCCC(C)N1C(=O)Cn1cnc2cc([N+](=O)[O-])ccc2c1=O (stereo not given),> 51.7
18,Cc1ccc(N2CCN(C(=O)c3cccs3)CC2)c(C)c1,2.3
19,O=C(/C=C/c1ccco1)N1CCN(S(=O)(=O)c2cccc([N+](=O)[O-])c2)CC1,28.1
20,N#Cc1cc([N+](=O)[O-])ccc1NC(=O)COC(=O)C1CCC(=O)N1 (stereo not given),> 49.8
21,O=C(CN1CCOCC1)Nc1cc(C(F)(F)F)ccc1Cl,39.2
22,CCCC12CN3CC(C)(CN(C1)C3c1ccc([N+](=O)[O-])o1)C2=O (stereo not given),> 47.9

row,Structure (SMILES),solubility kinetic [µg/mL]
1,CN1C(=O)C(=Cc2coc3ccccc3c2=O)C(=O)N(C)C1=O,> 46.8
2,Cc1cc(C)cc(NS(=O)(=O)c2csc(C(N)=O)c2)c1,> 46.6
3,CCCCN(CC)C(=O)c1cc2cc3ccc(Cl)cc3nc2o1,3.3
4,CC(NC(=O)COC(=O)c1ccccc1O)C1CC2CCC1C2 (stereo not given),14.1
5,CCOc1ccccc1NC(=O)Cn1c(=O)oc2ccccc21,25.2
6,Cc1ccccc1C(=O)NCC(=O)OC1CCCCC1=O (stereo not given),> 43.4
7,Cc1nc2ccccn2c1-c1ccnc(=S)[nH]1,31.8
8,CC1=C(C)CC(C(=O)NCc2cccc(Cl)c2)C(C(=O)O)C1 (stereo not given),> 48.3
9,O=C(Cc1c(F)cccc1Cl)Nc1ccccn1,30.2
10,NC(=O)CC1C(=O)N(c2ccccc2)C(=S)N1NC(=O)c1ccccc1 (stereo not given),> 55.3
11,Cc1cccc(NC2=CC(=O)CC(C)(C)C2)c1C,> 36.5
12,NS(=O)(=O)c1ccc(NC(=O)CN2C(=O)c3ccccc3C2=O)cc1,> 53.9
13,CC(=O)Nc1nc(-c2cc([N+](=O)[O-])cs2)cs1,0.7
14,O=C1c2ccccc2C2(c3cc(C(F)(F)F)cc(C(F)(F)F)c3)NCCN12 (stereo not given),55.9
15,CN1CC(C(=O)c2ccc(F)cc2)C(c2ccc(F)cc2)C1 (stereo not given),> 45.2
16,COc1ccc2[nH]cc(CCNC(=S)NC3CCCC3)c2c1,43.6
17,NC(=O)CCC(NC(=O)c1ccc(Cl)cc1)C(=O)O (stereo not given),> 42.7
18,Nn1c(SCC(=O)NCCc2ccc(S(N)(=O)=O)cc2)nnc1C1CCCCC1,> 65.8
19,CNc1nc(Cl)nc(Nc2ccccc2)n1,2
